# Values of other authors in patent publication US12435094B1, “Methods of preparing isomers, analogs, and synthetic derivatives from akuamma seeds” (priority 2024, dated 2025).
# Assays:
# mu opioid receptor (μOR) = mu opioid receptor (μOR) (Homo sapiens, UniProt P35372); conditions: background statement, no data shown
# [1] = test system: animal models of antinociception; conditions: background statement, no data shown
# Chain of mu opioid receptor (μOR) (P35372 whole entry, species assumed): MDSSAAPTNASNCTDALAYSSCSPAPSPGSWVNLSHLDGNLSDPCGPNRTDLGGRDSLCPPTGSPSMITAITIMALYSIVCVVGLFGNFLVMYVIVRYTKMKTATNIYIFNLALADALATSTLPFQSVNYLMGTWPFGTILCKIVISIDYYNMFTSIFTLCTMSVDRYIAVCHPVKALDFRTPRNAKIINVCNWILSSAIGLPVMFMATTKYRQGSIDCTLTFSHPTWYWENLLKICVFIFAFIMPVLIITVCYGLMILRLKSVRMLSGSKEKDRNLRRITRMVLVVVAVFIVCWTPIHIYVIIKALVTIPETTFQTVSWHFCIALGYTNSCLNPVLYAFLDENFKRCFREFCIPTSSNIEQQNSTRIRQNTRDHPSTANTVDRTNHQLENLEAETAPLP
Molecule,agonism of the mu opioid receptor (μOR) (mu opioid receptor (μOR)),effects in animal models of antinociception [1]
"C/C=C1/CN2CC[C@@]34c5ccccc5N(C)[C@]35OCC4(C(=O)OC)[C@@H]1C[C@H]25 [pseudoakuammigine, Pseudoakuammigine]",weak agonists,minimal effects
Akuammine,weak agonists,minimal effects
